For test [1], the system named is HiBiT-tagged HTT protein in K562 cells. The experiment in a line: HiBit protein abundance assay, HTT. It counts as cell-based, human. As to conditions: K562 HiBiT-modified cells, 24 hours, luminescence. The method in brief:
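K562 lines with endogenously HiBiT-tagged target, 10000 cells/well in IMDM + 1% FBS, treated 24 h at 37 °C with 10-point 3-fold dilutions (top 10 μM final, DMSO ≤0.25%). Abundance read by Nano-Glo HiBiT lytic luminescence; IC50 is concentration giving 50% of untreated level, four-parameter fit.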
(In general: The HiBiT peptide binds its large partner to form an active luciferase.)

The subject of another test is HTT mRNA. The experiment in a line: RT-qPCR splicing assay, HTT canonical (CJ) and alternative (AJ) junction mRNA. The note with it: Homo sapiens; for IC50: read-out: HTT CJ IC50; for AC50: read-out: HTT AJ AC50. It counts as cell-based. The gist of the method:
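Splice-junction mRNAs (CJ, AJ) measured by TaqMan one-step RT-qPCR on cell lysates, using PPIA as reference for adherent A673 and GAPDH or GUSB for K562. Cells exposed for 24 h to 11 threefold concentrations up to 10 uM final, with DMSO at or below 0.25%.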
Background: Real-time PCR tracks product formation cycle by cycle.

[2] abbreviates: decrease in CJ mRNA levels, larger panel of genes, Table 3.
The mark [3] stands for this setting: decrease in canonical junction mRNA, A673 or K562 cells, 24 hours treatment, Table 2.
Setting [4] is: increase in alternative junction mRNA, A673 or K562 cells, 24 hours treatment, Table 2.

Structures are written as SMILES. Read-outs that look alike come from different tables or passages of the source.

The IC50 is the concentration needed to halve the response being measured. What is called AC50 is the midpoint of the concentration-response curve, whichever way the signal moves. As to `Cc1ncc2cc(-c3cc(F)c4nn(C5CCNCC5)cc4c3)ccc2n1` [Compound 165, 6-[7-fluoro-2-(4-piperidyl)indazol-5-yl]-2-methyl-quinazoline], the IC50 (in test [1]; with HTT mRNA (setting [2]); with HTT mRNA (setting [3])) was > 10 µM each time. In the test on HTT mRNA (setting [4]), the AC50 is > 10 µM.

`Cc1cn2nc(-c3cc(F)c4nn(C5CCN(CCO)C6(CC6)C5)cc4c3)cc(C)c2n1` (centres unmarked) [Compound 180, 2-[7-[5-(2,8-dimethylimidazo[1,2-b]pyridazin-6-yl)-7-fluoro-indazol-2-yl]-4-azaspiro[2.5]octan-4-yl]ethanol]: the IC50 (in test [1]; in the test on HTT mRNA (24 h); in the test on HTT mRNA) was < 0.1 µM in each case. Besides, the AC50 in the test on HTT mRNA (24 h) was < 0.1 µM.

On to `Cn1cc2cc(-c3cc(F)c4nn(C5CCNCC5)nc4c3)cc(F)c2n1` [Compound 103, 4-fluoro-6-(7-fluoro-2-methyl-indazol-5-yl)-2-(4-piperidyl) benzotriazole], for which the IC50 (in test [1]; in the test with HTT mRNA (setting [2]); in the test with HTT mRNA (setting [3])) was 0.1 to 1 µM each time. For the same compound, the AC50 with HTT mRNA (setting [4]) was 0.1 to 1 µM.

Regarding `Cc1cc(-n2cc3cc(C4CCNCC4)cc(F)c3n2)cc2cn(C)nc12` [Compound 115, 2-(2,7-dimethylindazol-5-yl)-7-fluoro-5-(4-piperidyl)indazole], the IC50 (in test [1]; with HTT mRNA (setting [2]); with HTT mRNA (setting [3])) was 1 to 10 µM in each case. Also, in the test on HTT mRNA (setting [4]), the AC50 lay in the range of 1 to 10 µM.

Regarding `Cc1cn2nc(-c3cc(F)c4nn([C@@H]5CCNC[C@H]5F)cc4c3)cc(C)c2n1` [Compound 168, 6-(7-fluoro-2-((3R,4R)-3-fluoropiperidin-4-yl)-2H-indazol-5-yl)-2,8-dimethylimidazo [1,2-b]pyridazine], the IC50 (in test [1]; in the test with HTT mRNA (setting [2]); with HTT mRNA (setting [3])) was < 0.1 µM in each case. Moreover, the AC50 in the test with HTT mRNA (setting [4]) was 0.1 to 1 µM.

With `Cc1cn2nc(-c3cc(F)c4nn(C5CCN(CCF)CC5)cc4c3)cc(C)c2n1` [Compound 152], the IC50 (in test [1]; with HTT mRNA (setting [2]); in the test with HTT mRNA (setting [3])) was < 0.1 µM each time. In the test on HTT mRNA (setting [4]), the AC50 lay in the range of 0.1 to 1 µM.

Turning to `Cc1nc2c(C)cc(-n3cc4cc(N5CCNCC5)cc(F)c4n3)cc2o1` [Compound 119, 6-(7-fluoro-5-piperazin-1-yl-indazol-2-yl)-2,4-dimethyl-1,3-benzoxazole], the IC50 (in test [1]; with HTT mRNA (setting [2]); in the test on HTT mRNA (setting [3])) was > 10 µM in each case. The AC50 with HTT mRNA (setting [4]) was > 10 µM.

As for `Cc1cc(-n2cc3cc(N4CCNCC4)ccc3n2)cc2cn(C)nc12` [Compound 121, 2,7-dimethyl-5-(5-piperazin-1-ylindazol-2-yl)indazole], the IC50 (in test [1]; with HTT mRNA (setting [2]); with HTT mRNA (setting [3])) was > 10 µM throughout. Further, the AC50 in the test on HTT mRNA (setting [4]) was > 10 µM.

Values taken from patent US20250082633A1, “COMPOUNDS AND METHODS FOR MODULATING SPLICING” (REMIX THERAPEUTICS INC., priority 2021, published 2025).
